The values that follow come from patent US20010027248A1, “Novel receptor” (SmithKline Beecham p.l.c., priority 1994, published 2001).

For one assay, the system named is novel receptor. Nature of the assay: Binding of known anticonvulsant compounds to the novel receptor. From the text: Alternatively, the binding affinities of non-radio-labelled test compounds may be established by measuring the amount of displacement of a radio-labelled compound which is known to bind to the receptor such as compound (A) and (B) and other compounds mentioned or covered by the aforementioned patents or applications, using conventional techniques.

The target in assay [1] is novel receptor (rat forebrain tissue). Nature of the assay: Radioligand saturation binding to the novel receptor in rat forebrain tissue homogenate. To be noted: calculated from specific binding over a range of radioligand concentrations, read-out: Kd (dissociation constant). As for the experimental part:
Adult male Wistar rats were killed and brains removed by dissection. Whole forebrain tissue was dissected out and homogenised in a buffered aqueous medium. The homogenised tissue was washed by centrifugation and resuspended in the same buffer. After centrifugation the resuspended tissue was either used fresh or stored frozen for periods of up to 3 months or more before use.
Aliquot of tissue prepared as above at a concentration of 1-10 mg protein/ml were mixed with aliquots of [^3H]-compound A dissolved in buffered medium ([…] HEPES, pH7.4). The final concentration of [^3H] compound A in the mixture was in the range of 20-50 nM. The mixture was incubated at room temperature for about 1 hour. [^3H]-compound A bound to the tissue was then separated from unbound [^3H]-compound A by filtration. This filtration was through Whatman glass fibre filters (GF/B or GF/C). The filters were then washed rapidly with ice-cold buffered medium (50 mM HEPES, pH7.4). The amount of radioactivity bound to the tissue trapped on the filters was measured by addition of liquid scintillation cocktail filters followed by counting in a liquid scintillation counter. […]

Take `O=C1NC(=O)C(c2ccccc2)(c2ccccc2)N1` [phenytoin]: the “binding to the novel receptor” value with novel receptor was “do not bind”.

Regarding `CCCC(C)C1(CC)C(=O)NC(=O)NC1=O` (stereo not drawn) [pentobarbitone], the “binding to the novel receptor” value in the assay on novel receptor is given as “do not bind”.

`Nc1nnc(-c2cccc(Cl)c2Cl)c(N)n1` [lamotrigine]: the “binding to the novel receptor” value in the assay with novel receptor was “do not bind”.

Turning to `CCC1(C)CC(=O)NC1=O` (stereo not drawn) [ethosuximide], the “binding to the novel receptor” value in the assay with novel receptor was “do not bind”.

On to `C=CC(N)CCC(=O)O` (stereo not drawn) [vigabatrin], for which the “binding to the novel receptor” value with novel receptor is reported as “do not bind”.

For `NC(=O)N1c2ccccc2C=Cc2ccccc21` [carbamazepine], the “binding to the novel receptor” value in the assay with novel receptor is given as “do not bind”.

One may read the Kd as a measure of binding affinity in units of concentration. Consider `CC(=O)c1ccc2c(c1)[C@H](NC(=O)c1ccc(F)cc1)[C@@H](O)C(C)(C)O2` [compound A, trans-(+)-6-Acetyl-4S-(4-fluorobenzolamino)-3,4-dihydro-2,2-dimethyl-2H-1-benzopyran-3R-ol], for which, in assay [1], the dissociation constant (Kd) was 40 nM.

In the case of `NCC1(CC(=O)O)CCCCC1` [gabapentin], the “binding to the novel receptor” value with novel receptor is on record as “do not bind”.

As for `CN1C(=O)CN=C(c2ccccc2)c2cc(Cl)ccc21` [diazepam], in the assay with novel receptor, the “binding to the novel receptor” value was “do not bind”.
